Patent EP2646421B1, “7-NITRO-5-PHENYL-1-(PYRROLIDIN-1-YLMETHYL)-1H-BENZO[E][1,4]DIAZEPIN-2(3H)-ONE AND OTHER BENZODIAZEPINE DERIVATIVES” (Pignataro, Giuseppe, priority 2010, dated 2012)

Tests used:
Type in all cases: cell-based
NCX1Δf = target: T1, NCX1Δf (Canis lupus familiaris, UniProt P23685, DEL273-712); test: Na+-dependent Ca2+ influx assay on BHK cells with f-loop deletion mutant; conditions: 10 nM; compared to wild-type NCX3 exposed to the same treatment
T1 construct: expressed in transfected cells
Procedure: In order to establish the molecular determinants of the effect of neurounina-1 on NCX1, we firstly performed a Na^+-dependent Ca^2+ influx assay on BHK cells stably transfected with a mutated NCX1 exchanger (NCX1Δf), in which a large portion of the f loop, region 241-680, was removed by deletion mutagenesis.
All experiments aimed to identify the binding site of neurounina-1 were performed on BHK cells stably transfected with a single NCX chimera or mutant.
The activity of the Na^+/Ca^2+ exchanger was measured by means of ^45Ca^2+ radiotracer variations in the cytoplasm of cells exposed to a protocol stimulating the forward or the reverse mode of the antiporter. The BHK cells expressing each mutated or non-mutated NCX isoform were cultured in 12-well dishes and incubated in 145 mM NaCl for 10 minutes and then in a medium containing only 145 mM N-Methyl D-glucamine (NMDG) and 10 µM of ^45Ca^2+. This rapid substitution of the medium from a high level of Na^+ to another one without Na^+ allow the ^45Ca^2+ influx (reverse mode). Before the medium substitution cells was incubated with 1 mM ouabain, a Na^+/K^+ pump inhibitor, and 10 µM monensin, a ionophore for extracellular Na^+. […] The medium was removed and cells were subsequently lysed with 0.1 N NaOH and aliquots were taken to determine radioactivity and protein content.

NCX2 = target: T2, NCX2 (Rattus norvegicus, UniProt P48768); test: 45Ca2+ radiotracer fluxes (efflux/influx) in BHK-NCX2 cells
T2 construct: expressed in transfected cells
Procedure: The activity of NCX was established by means of three different subclones of baby hamsted kidney (BHK) cells that were stably transfected with one of each NCX isoforms, named BHK-NCX1, BHK-NCX2 and BHK-NCX3. These cell lines were grown on plastic dishes in a mix of DMEM and Ham's F12 media (1:1) (Gibco, Invitrogen, MI, Italy) supplemented with 5% fetal bovine serum, 100 U/ml penicillin, and 100 µg/ml streptomycin (Sigma, St. Louis, Missouri, USA). Cells were cultured in a humidified 5% CO2 atmosphere and at the temperature of 37°C.
The activity of the Na^+/Ca^2+ exchanger was measured by means of ^45Ca^2+ radiotracer variations in the cytoplasm of cells exposed to a protocol stimulating the forward or the reverse mode of the antiporter. The BHK cells expressing each mutated or non-mutated NCX isoform were cultured in 12-well dishes and incubated in 145 mM NaCl for 10 minutes and then in a medium containing only 145 mM N-Methyl D-glucamine (NMDG) and 10 µM of ^45Ca^2+. This rapid substitution of the medium from a high level of Na^+ to another one without Na^+ allow the ^45Ca^2+ influx (reverse mode). Before the medium substitution cells was incubated with 1 mM ouabain, a Na^+/K^+ pump inhibitor, and 10 µM monensin, a ionophore for extracellular Na^+. After 30 seconds incubation, cells were washed with an ice-cold solution containing 2 mM La^3+ to stop ^45Ca^2+ uptake. The medium was removed and cells were subsequently lysed with 0.1 N NaOH and aliquots were taken to determine radioactivity and protein content.
In order to measure NCX activity in the forward mode, cells were firstly loaded with ^45Ca^2+ and subsequently exposed to a chemical protocol to stimulate the efflux of the radiotracer in the extracellular medium. In particular, cells were loaded with ^45Ca^2+ by using a solution containing 1 µM ionomycin, 145 mM Na^+ and ^45Ca^2+. Next, cells were exposed to a Ca^2+-free solution containing 2 mM EGTA. One µM thapsigargin, a Ca^2+-ATPase inhibitor, was present in both solutions in order to prevent ^45Ca^2+ influx in intracellular organelles. After 60 second, cells were lysed with […] NaOH and aliquots were taken to determine cytoplasmatic radioactivity.
Cells were incubated for 30 minutes with different neurounina-1 concentrations.

rat cortical neurons = test: Oxygen and glucose deprivation (OGD) followed by reoxygenation; conditions: 10 nM; 3 hours OGD followed by 21 hours of reoxygenation
Procedure: The effect of neurounina-1 was evaluated on cell viability by using rat primary cortical neurons obtained as follow. Briefly, cortical neurons were prepared from brains of 1-2 day-old new-born rats, anaesthetizes with halothane in a glass chamber and decapitated. Dissection and dissociation were performed in a Ca^2+-Mg^2+-free PBS containing glucose. The brain was removed from the skull and the cerebral cortex was removed. Cerebral cortex was first digested enzymatically and after dispersed mechanically by trituration. Cellular suspension was plated on coverslips previously pre-coated with poly-D-lysine 1mg/ml and cultured in "Neurobasal" medium containing B27 (1:50) and Glutamax)1:100).
The oxygen and glucose deprivation (OGD) was used as a model to reproduce in vitro a condition similar to that observed in vivo when a cerebral vessel was occluded as it occurs in stroke. Briefly, cells were incubated in a medium oxygen and glucose-free and containing: NaCl 116 mM, KCI 5.4 mM, MgSO4 0.8 mM, NaHCO3 26.2 mM, NaH2PO4 1 mM, CaCl2 1.8 mM, glycin 0.01 mM e phenol 0.001 mM (w/v) (Molinaro et al., 2008). This medium was previously saturated with 1 atm of a gas containing 95% N2 and 5% CO2 for 20 minutes. […]

T2 sequence (P48768 21-921): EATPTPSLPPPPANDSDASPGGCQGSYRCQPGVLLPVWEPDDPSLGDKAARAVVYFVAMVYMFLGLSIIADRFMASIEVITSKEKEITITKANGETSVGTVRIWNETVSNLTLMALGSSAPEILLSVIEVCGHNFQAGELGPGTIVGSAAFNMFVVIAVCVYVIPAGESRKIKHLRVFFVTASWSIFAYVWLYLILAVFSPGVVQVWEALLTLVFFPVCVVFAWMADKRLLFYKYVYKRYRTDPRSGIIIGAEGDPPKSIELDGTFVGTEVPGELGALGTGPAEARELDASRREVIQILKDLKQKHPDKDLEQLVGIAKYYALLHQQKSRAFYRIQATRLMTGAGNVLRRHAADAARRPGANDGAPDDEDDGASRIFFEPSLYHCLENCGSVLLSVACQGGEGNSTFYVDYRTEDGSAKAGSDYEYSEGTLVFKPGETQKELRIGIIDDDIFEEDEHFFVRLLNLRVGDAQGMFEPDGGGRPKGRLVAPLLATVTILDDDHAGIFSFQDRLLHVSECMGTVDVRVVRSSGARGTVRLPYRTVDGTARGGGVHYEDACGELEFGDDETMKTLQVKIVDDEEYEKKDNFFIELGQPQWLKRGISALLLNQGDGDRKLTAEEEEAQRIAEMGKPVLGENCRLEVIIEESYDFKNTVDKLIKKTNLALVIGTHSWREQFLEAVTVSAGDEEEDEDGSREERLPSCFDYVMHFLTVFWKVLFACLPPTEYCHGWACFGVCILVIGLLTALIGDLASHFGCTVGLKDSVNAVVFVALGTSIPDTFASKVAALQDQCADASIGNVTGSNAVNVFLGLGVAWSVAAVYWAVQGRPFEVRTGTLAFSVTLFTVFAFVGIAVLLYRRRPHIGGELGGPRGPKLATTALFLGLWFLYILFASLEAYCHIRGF
T1 sequence (P23685 with tags, fused parts or gaps DEL273-712): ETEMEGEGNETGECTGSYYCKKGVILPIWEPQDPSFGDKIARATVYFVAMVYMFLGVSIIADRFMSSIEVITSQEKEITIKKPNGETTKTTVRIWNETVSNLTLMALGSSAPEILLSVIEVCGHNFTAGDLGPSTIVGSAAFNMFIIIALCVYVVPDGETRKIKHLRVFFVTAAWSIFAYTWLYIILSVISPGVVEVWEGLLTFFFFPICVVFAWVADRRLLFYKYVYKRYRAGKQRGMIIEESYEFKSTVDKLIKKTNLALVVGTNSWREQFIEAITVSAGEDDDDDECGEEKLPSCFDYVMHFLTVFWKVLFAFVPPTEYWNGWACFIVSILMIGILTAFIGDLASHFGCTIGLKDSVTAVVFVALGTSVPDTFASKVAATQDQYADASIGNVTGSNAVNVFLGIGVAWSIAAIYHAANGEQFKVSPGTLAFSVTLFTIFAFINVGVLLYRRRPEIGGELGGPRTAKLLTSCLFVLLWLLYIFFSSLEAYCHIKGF

In the case of `O=C1CN=C(c2ccccc2)c2cc([N+](=O)[O-])ccc2N1CN1CCCC1` [neurounina-1, 7-nitro-5-phenyl-1-(pyrrolidin-1-ylmethyl)-1H-benzo[e][1,4]diazepin-2(3H)-one], the “activity of the mutant NCX1Δf” value (NCX1Δf) is reported as “significantly increased”, the “increase of forward mode of NCX2 activity” value (NCX2; 45Ca2+ radiotracer, forward mode) is reported as 30% and the “increase of reverse mode NCX2 activity” value (NCX2; 45Ca2+ radiotracer, reverse mode) is reported as 40%. It also gave an EC50 (NCX2; EC50 NCX2, reverse mode, 45Ca2+ radiotracer, reverse mode) of 2.7 nM, an EC50 (NCX2; EC50 for NCX2, forward mode, 45Ca2+ radiotracer, forward mode) of 1.7 nM and an EC50 (NCX2; EC50 su NCX2, from the functional assays (summary)) of 1 to 2 nM. For the same compound, the NCX2 activity (NCX2; forward and reverse mode, patch clamp, Fura-2 microfluorimetry and 45Ca2+ fluxes (summary)) was “increases, in a dose-dependent manner” and the “cell death of rat cortical neurons” value (rat cortical neurons) was “reduced cell death”.
